Assay results from EP0516186A2, “Nucleosides and nucleoside analogues, pharmaceutical composition and processes for the preparation of the compounds” (priority 1987, dated 1988).

Key:
Format in all cases: cell-based
[1] = tested on: HIV (HTLV-IIIB); experiment: Effect on HIV in H9 cells (frequency of HIV antigen containing cells, immunofluorescence); conditions: Human immunodeficiency virus 1; H9 cells exposed to HIV (HTLV-IIIB), incubated 6 - 7 days; read-out: Concentration (µM) for 50 % inhibition (IC₅₀) of human immuno deficiency virus multiplication in cell culture
Experimental: Test I. Effect of compounds of the formula I on HIV in H9 cells
Materials and methods: HIV infection of H9 cells
H9 cells, 10⁵ cells per well on a 24 well plate, suspended in 2 ml RPMI-medium containing 10 % fetal calf serum, 100 µg/ml penicillin, 10 µg/ml streptomycin sulfate and 2 µg/ml polybrene are exposed to HIV (HTLV-IIIB) and different concentrations of the test compounds. The plates are incubated at 37°C in 5 % CO₂ for 6 - 7 days. The contents in each well is then homogenized with a pipette and transferred to a centrifuge tube. After centrifugation for 10 min at 1500 rpm the supernatent is removed and the cell pellet is analyzed by fixing in methanol on glass plates. Human HIV positive serum diluted 1:80 or 1:160 is added and incubated for 30 min at 37°. The plate is then washed with phosphate-buffered saline (PBS) containing Ca²⁺ and Mg²⁺. Sheep antihuman conjugate (FITC) is added and after a new incubation the plate is again washed with PBS. Contrast staining is done with Evans blue and after drying the frequency of HIV antigen containing cells is determined in a microscope.

[2] = Cellular toxicity in F5000 cells (cell multiplication); conditions: F5000 human embryo cells, number of cells after 48 hrs; 50 % inhibition of cell multiplication; read-out: TC₅₀(µM) F5000
Experimental: (§1) Test II. Cellular toxicity
(§2) F5000 cells, which are human embryo cells, 1x10⁵ cells per plate, are incubated in Eagle's minimal essential medium, supplemented with Earle's salts, non-essential amino acids, 10 % fetal calf serum, 10 mM hepes, 70 mg/l penicillin and 100 mg/l streptomycin, in absence or presence of test compounds. The number of cells per plate is determined after 48 hrs. Cells incubated in absence of test compounds underwent one cell division cycle. The results are given as TC₅₀, which is the concentration of a compound which gives 50 % inhibition of cell multiplication.

[3] = Cellular toxicity in H9 cells (cell multiplication); conditions: human, number of cells after 48 hrs, 50 % inhibition of cell multiplication, read-out: TC₅₀(µM) H9
Experimental: as §1
H₉ cells, 2x10⁷ cells per plate, are incubated in RPMI-1640 medium containing 10 % fetal calf serum, 70 mg/l penicillin, 100 mg/l streptomycin and 10 mM hepes, in absence or precence of test compounds. The number of cells per plate is determined after 48 hrs. Cells incubated in absence of test compound then underwent two cell division cycles.
as §2

SMILES	IC50 [1] [µM]	CC50 at 48 h [2] [µM]	CC50 at 48 h [3] [µM]
CCc1cn([C@@H]2C[C@H](O)[C@@H](CO)O2)c(=O)[nH]c1=O [VIP 289, 1-(2-deoxy-α-D-ribofuranosyl)-5-ethyluracil]	10	1000	–
CCCc1cn([C@@H]2C[C@H](F)[C@@H](CO)O2)c(=O)[nH]c1=O [VSA 409, 1-(3-F-2,3-dideoxy-α-D-ribofuranosyl)-5-propyluracil]	2.5	–	–
CCc1cn([C@@H]2C[C@H](F)[C@@H](CO)O2)c(=O)[nH]c1=O [VSA 411, 1-(3-F-2,3-dideoxy-α-D-ribofuranosyl)-5-ethyluracil]	0.1	500	400
Cc1cn([C@@H]2C[C@H](F)[C@@H](CO)O2)c(=O)[nH]c1=O [VSA 419, 1-(3-F-2,3-dideoxy-α-D-ribofuranosyl)thymine]	–	250	–
